The values that follow come from patent US8629157B2, “Pyrrolidine compounds which modulate the CB2 receptor” (Boehringer Ingelheim International GmbH, priority 2009, dated 2014).

pEC50: −log10 of the molar value.

The target in one test is human CB2R (Homo sapiens, UniProt P34972). Description: CB2R mediated modulation of cAMP synthesis. Type of test: cell-based.
Sequence of human CB2R (P34972 whole entry): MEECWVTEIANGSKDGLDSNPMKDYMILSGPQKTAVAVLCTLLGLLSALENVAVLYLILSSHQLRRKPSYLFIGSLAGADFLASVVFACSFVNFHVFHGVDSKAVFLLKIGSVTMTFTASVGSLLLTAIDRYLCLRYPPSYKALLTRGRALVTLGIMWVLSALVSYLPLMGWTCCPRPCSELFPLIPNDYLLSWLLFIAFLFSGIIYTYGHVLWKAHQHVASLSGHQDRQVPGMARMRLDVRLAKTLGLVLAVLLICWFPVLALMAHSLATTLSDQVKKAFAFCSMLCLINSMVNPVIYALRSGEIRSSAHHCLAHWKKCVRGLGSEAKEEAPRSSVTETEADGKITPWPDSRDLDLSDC
Conditions: not given
On the procedure: B. CB2R Mediated Modulation of cAMP Synthesis:
Compounds of the invention were evaluated for their CB2 agonist or inverse agonistic activity in accordance with the following experimental method.
CHO cells expressing human CB2R (Euroscreen) were plated at a density of 5000 cells per well in 384 well plates and incubated overnight at 37° C. After removing the media, the cells were treated with test compounds diluted in stimulation buffer containing 1 mM IBMX, 0.25% BSA and 10 uM Forskolin. The assay was incubated for 30 minutes at 37° C. Cells were lysed and the cAMP concentration was measured using DiscoverX-XS cAMP kit, following the manufacturer's protocol. In this setting, agonists will decrease forskolin induced production of cAMP while inverse agonists will further increase forskolin induced production of cAMP. EC50 of agonists were calculated as follows. The maximal amount of cAMP produced by forskolin compared to the level of cAMP inhibited by 1 uM CP55940 is defined as 100%. […] Data was analyzed using a four-parameter logistic model. (Model 205 of XLfit 4.0).
With `CC(C)N1C[C@@H](O)C[C@H]1C(=O)Nc1cc(C(C)(C)C)no1` [(2S,4S)-4-Hydroxy-1-isopropyl-pyrrolidine-2-carboxylic acid (3-tert-butyl-isoxazol-5-yl)-amide], the pEC50 (commonly the negative decadic logarithm of the EC50, by convention in mol/L) was 6.38.

For `CC(C)(C)c1cc(NC(=O)[C@@H]2C[C@@H](O)CN2c2ccc(Cl)cc2)no1` [(2S,4R)-1-(4-Chloro-phenyl)-4-hydroxy-pyrrolidine-2-carboxylic acid (5-tert-butyl-isoxazol-3-yl)-amide], the pEC50 is 7.84.

Molecule `O=C(Nc1nc(-c2ccccc2)ns1)[C@@H]1C[C@H](O)CN1c1ccc(C(F)(F)F)cn1` [(2S,4S)-4-Hydroxy-1-(5-trifluoromethyl-pyridin-2-yl)-pyrrolidine-2-carboxylic acid (3-phenyl-1,2,4-thiadiazol-5-yl)-amide] had a pEC50 of 7.73.

In turn, `CC(C)(C)c1cc(NC(=O)[C@@H]2CCCN2S(=O)(=O)c2ccc(Cl)cc2)no1` [(S)-1-(4-Chloro-benzenesulfonyl)-pyrrolidine-2-carboxylic acid (5-tert-butyl-isoxazol-3-yl)-amide] gave a pEC50 of 6.55.

In turn, `O=C(Nc1nc2ccc(Cl)cc2s1)[C@@H]1CCCN1CC1CCOCC1` [(S)-1-(Tetrahydro-pyran-4-ylmethyl)-pyrrolidine-2-carboxylic acid (6-chloro-benzothiazol-2-yl)-amide] gave a pEC50 of 6.73.

For the molecule `O=C(Nc1nc(-c2ccc(Cl)cc2)cs1)[C@@H]1CCCN1c1ccc(Cl)cc1` [(S)-1-(4-Chloro-phenyl)-pyrrolidine-2-carboxylic acid [4-(4-chloro-phenyl)-thiazol-2-yl]-amide], the pEC50 is 7.07.

`CC(C)(C)c1cc(NC(=O)[C@@H]2CCCN2CCCO)on1` [(S)-1-(3-Hydroxy-propyl)-pyrrolidine-2-carboxylic acid (3-tert-butyl-isoxazol-5-yl)-amide] showed a pEC50 of 7.54.

Turning to `CC(C)(CO)c1cc(NC(=O)[C@@H]2CCCN2c2ccc(Cl)cc2)on1` [(S)-1-(4-Chloro-phenyl)-pyrrolidine-2-carboxylic acid [3-(2-hydroxy-1,1-dimethyl-ethyl)-isoxazol-5-yl]-amide], the negative-log EC50 (pEC50) was 9.42.

Molecule `CC(C)(C)c1cc(NC(=O)[C@@H]2C[C@@H](O)CN2C2CCOCC2)on1` [(2S,4R)-4-Hydroxy-1-(tetrahydro-pyran-4-yl)-pyrrolidine-2-carboxylic acid (3-tert-butyl-isoxazol-5-yl)-amide] had a pEC50 of 6.48.

With `CC(C)(C)c1nnc(NC(=O)[C@@H]2CCCN2CCCO)s1` [(S)-1-(3-Hydroxy-propyl)-pyrrolidine-2-carboxylic acid (5-tert-butyl-1,3,4-thiadiazol-2-yl)-amide], the pEC50 is 6.49.

In turn, `Cc1ccc(N2C(=O)CC[C@H]2C(=O)Nc2cc(C(C)(C)C)no2)nc1` [(S)-1-(5-Methyl-pyridin-2-yl)-5-oxo-pyrrolidine-2-carboxylic acid (3-tert-butyl-isoxazol-5-yl)-amide] had a pEC50 of 7.81.

For the molecule `O=C(Nc1nc(C2CCCCC2)cs1)[C@@H]1CCCN1c1ccc(Cl)cc1` [(S)-1-(4-Chloro-phenyl)-pyrrolidine-2-carboxylic acid (4-cyclohexyl-thiazol-2-yl)-amide], the negative logarithm of the EC50 (pEC50) was 7.45.

For the molecule `CC(Cc1ccc(Cl)cc1)NC(=O)[C@@H]1CCCN1c1ccc(Cl)cc1` (stereo partly drawn) [(S)-1-(4-Chloro-phenyl)-pyrrolidine-2-carboxylic acid [2-(4-chloro-phenyl)-1-methyl-ethyl]-amide], the pEC50 is 6.57.

Regarding `CC(C)(C)c1csc(NC(=O)[C@@H]2CCCN2c2ccc(Cl)cc2)n1` [(S)-1-(4-Chloro-phenyl)-pyrrolidine-2-carboxylic acid (4-tert-butyl-thiazol-2-yl)-amide], the negative logarithm of the EC50 (pEC50) was 7.52.

In turn, `CC(C)(C)c1cc(NC(=O)[C@@H]2CCC(=O)N2c2cccc(F)c2)on1` [(S)-1-(3-Fluoro-phenyl)-5-oxo-pyrrolidine-2-carboxylic acid (3-tert-butyl-isoxazol-5-yl)-amide] gave a negative-log EC50 (pEC50) of 6.45. This pEC50 lies 1.07 log units lower than the previous one.

For the molecule `C[C@@]1(C(=O)Nc2ccc(C(F)(F)F)cn2)CCCN1c1ccc(Cl)cc1` [(S)-1-(4-Chloro-phenyl)-2-methyl-pyrrolidine-2-carboxylic acid (5-trifluoromethyl-pyridin-2-yl)-amide], the pEC50 is 7.57. Compared with the last molecule, the pEC50 is 1.12 log units higher.

`CC(C)(C)c1cc(NC(=O)[C@@H]2C[C@H](O)CN2c2ncc(C(F)(F)F)cc2Cl)no1` [(2S,4S)-1-(3-Chloro-5-trifluoromethyl-pyridin-2-yl)-4-hydroxy-pyrrolidine-2-carboxylic acid (5-tert-butyl-isoxazol-3-yl)-amide] showed a pEC50 of 8.87.

For the molecule `Cn1nc(C(C)(C)C)cc1NC(=O)C1CCCN1c1ncc(C(F)(F)F)cc1Cl` (stereo not drawn) [1-(3-Chloro-5-trifluoromethyl-pyridin-2-yl)-pyrrolidine-2-carboxylic acid (5-tert-butyl-2-methyl-2H-pyrazol-3-yl)-amide], the pEC50 is 6.95. Against the preceding molecule, the pEC50 is 1.92 log units lower.

With `CC(C)(C)Cc1cc(NC(=O)[C@@H]2CCCN2CC2CCOCC2)on1` [(S)-1-(Tetrahydro-pyran-4-ylmethyl)-pyrrolidine-2-carboxylic acid [3-(2,2-dimethyl-propyl)-isoxazol-5-yl]-amide], the pEC50 is 8.46.

Regarding `O=C(Nc1ccc(C(F)(F)F)cn1)[C@@H]1CCCN1c1ccc(Cl)cc1` [(S)-1-(4-Chloro-phenyl)-pyrrolidine-2-carboxylic acid (5-trifluoromethyl-pyridin-2-yl)-amide], the pEC50 is 7.45.

With `CC(C)(C)c1cc(NC(=O)[C@@H]2CCC(=O)N2c2ccc(C#N)cc2)no1` [(S)-1-(4-cyano-phenyl)-5-oxo-pyrrolidine-2-carboxylic acid (5-tert-butyl-isoxazol-3-yl)-amide], the pEC50 was 7.22. This pEC50 lies 0.23 log units lower than the previous one.

In the case of `CC(C)(C)c1cc(NC(=O)[C@@H]2C[C@@H](O)CN2c2ncc(C(F)(F)F)cc2Cl)no1` [(2S,4R)-1-(3-Chloro-5-trifluoromethyl-pyridin-2-yl)-4-hydroxy-pyrrolidine-2-carboxylic acid (5-tert-butyl-isoxazol-3-yl)-amide], the negative-log EC50 (pEC50) was 8.30.

For the molecule `CC(C)(C)c1csc(NC(=O)[C@@H]2CCCN2c2ccc(C(F)(F)F)cn2)n1` [(S)-1-(5-Trifluoromethyl-pyridin-2-yl)-pyrrolidine-2-carboxylic acid (4-tert-butyl-thiazol-2-yl)-amide], the pEC50 was 8.07.

Molecule `COCC(C)(C)c1cc(NC(=O)[C@@H]2C[C@@H](O)CN2c2ccc(Cl)cc2)on1` [(2S,4R)-1-(4-Chloro-phenyl)-4-hydroxy-pyrrolidine-2-carboxylic acid [3-(2-methoxy-1,1-dimethyl-ethyl)-isoxazol-5-yl]-amide] gave a negative logarithm of the EC50 (pEC50) of 7.06.

As to `CC(C)(C)c1cc(NC(=O)[C@@H]2CCCN2CC2CCOCC2)on1` [(S)-1-(Tetrahydro-pyran-4-ylmethyl)-pyrrolidine-2-carboxylic acid (3-tert-butyl-isoxazol-5-yl)-amide], the pEC50 is 9.36.

Take `CC(C)(C)c1cc(NC(=O)C2CCCN2c2ncc(C(F)(F)F)cc2Cl)no1` (stereo not drawn) [1-(3-Chloro-5-trifluoromethyl-pyridin-2-yl)-pyrrolidine-2-carboxylic acid (5-tert-butyl-isoxazol-3-yl)-amide]: the negative-log EC50 (pEC50) was 10.40.

Still in this test, the particulars now being: CHO cells expressing human CB2R; inhibition of forskolin-stimulated cAMP synthesis; mean; read-out: CB2 CAMP @ EC50 nM (mean).
On to `Cc1ccc(N2C(=O)CC[C@H]2C(=O)Nc2cc(C(C)(C)C)on2)cc1Cl` [(S)-l-(3-Chloro-4-methyl-phenyl)-5-oxo-pyrrolidine-2-carboxylic acid (5-tert-butyl-isoxazol-3-yl)-amide], for which the EC50 (in general, the concentration giving half of the maximal effect) stood at 333 nM.
